In patent US10201530B2, “Treatment of BRCA1-defective cancer or resistant cancers” (City of Hope, priority 2014, dated 2019):

Tests used:
SKBR3 = assay: Cytotoxicity, SKBR3 cells; format: cell-based, human; conditions: Homo sapiens, SK-BR-3; SKBR3, ER− PR(−) HER2+
Description: (§1) All cell lines were acquired from the American Type Culture Collection (Manassas, Va., USA). Cells were maintained in RPMI 1640 medium (Mediatech) with 10% fetal bovine serum, 2 mM glutamine, and 100 U of penicillin and 100 μg of streptomycin per ml of medium (Sigma) at 37° C. in 5% CO2. To isolate HCC1437+BRCA1 cells, parental HCC1937 cells were transfected with pcDNA3.1 plasmid expressing full-length BRCA1 cDNA. Stable transfectant clones were selected and used for drug sensitivity assays. For stable transfection, cells at 30-40% confluence were incubated overnight with […] of plasmid DNA, using FUGENE® 6 transfectin reagent (Roche Molecular Biochemical, Monza, Italy) according to the manufacturer's instructions. Cells were then selected in puromycin (1 μg/ml) (Invitrogen life Technologies, La Jolla, Calif., USA.) After 20 to 30 days, viable puromycin-resistant colonies from HCC1937 transfections were expanded and screened. The clones that stably expressed […] and retained growth potential were assayed for BRCA1 expression by Western blot analysis. By Western blot analysis, we evaluated the restoration of BRCA1 expression in the puromycin-resistant cDNA/transfectant cells.
(§2) The MTT cytotoxicity assay was performed by incubating with MTT and monitoring the MTT formazan formed by viable cells with a microplate reader at a wavelength of 560 nm; the survival, ratio was determined using the formula: (Atest−Ablank)/(Acontrol−Ablank)×100%. The cytotoxicity was determined in 96-well plates using the semiautomatic fluorescence-based Digital Imaging Microscopy System (DIMSCAN). DIMSCAN uses digital imaging microscopy to quantify viable cells, which selectively accumulate FDA (fluorescein diacetate; Alfa Aesar, Ward Hill, Mass.). DIMSCAN is capable of measuring cytotoxicity over a 4 log dynamic range by quantifying total fluorescence per well (which is proportional to the number of viable cells) after elimination of the background fluorescence by digital thresholding and eosin Y (Mallinckrodt Baker, Center Valley, Pa.) quenching. […]

MCF-7 = assay: Cytotoxicity, MCF-7 cells; format: cell-based, human; conditions: Homo sapiens, MCF7; MCF-7, ER+ PR(+)
Description: as §1, §2

[1] = more potent than HU, ref (6); cited from earlier work
A2780 = assay: Cytotoxicity, A2780 cells; format: cell-based, human; conditions: Homo sapiens; A2780, cisplatin-sensitive ovarian cells; read-out: IC50, mean ± SEM
Description: as §1
The MTT cytotoxicity assay was performed by incubating with MTT and monitoring the MTT formazan formed by viable cells with a microplate reader at a wavelength of 560 nm; the survival, ratio was determined using the formula: (Atest−Ablank)/(Acontrol−Ablank)×100%. The cytotoxicity was determined in 96-well plates using the semiautomatic fluorescence-based Digital Imaging Microscopy System (DIMSCAN). DIMSCAN uses digital imaging microscopy to quantify viable cells, which selectively accumulate FDA (fluorescein diacetate; Alfa Aesar, Ward Hill, Mass.). DIMSCAN is capable of measuring cytotoxicity over a 4 log dynamic range by quantifying total fluorescence per well (which is proportional to the number of viable cells) after elimination of the background fluorescence by digital thresholding and eosin Y (Mallinckrodt Baker, Center Valley, Pa.) quenching. Cells were seeded into 96-well plates in 100 μL of complete medium at 2,000 to 5,000 cells per well depending on cell line growth rate. After overnight incubation, test compound was added to each well at various concentrations in 50 μL of culture medium. After incubation with the drugs for 96 hours at 37° C., FDA (final concentration: […]) and eosin Y [final concentration: 0.1% (w/v)] were added to each well and the cells were incubated for an additional 20 minutes at 37° C. Total fluorescence per well was then measured using DIMSCAN, and the results were expressed as the ratio of the fluorescence in treated wells to the fluorescence in untreated wells (survival fraction).

PARP1 = biological target: T1, PARP1 (Homo sapiens, UniProt P09874); assay: PARP1 activity in lysates of treated cells (chemiluminescent assay kit); format: cell-based
T1 construct: endogenous in cells; host or cells: HCC1937, HCC1937+BRCA1, UWB1.289, UWB1.289+BRCA1 (human breast / ovarian cancer lines)
Description: The PARP1 activity was determined using the PARP1 Chemiluminscent Assay Kit (BPS Bioscience, San Diego) according to the manufacturer's protocol. Briefly, the ribosylation reaction was carried out with activated DNA in PARP assay buffer using test inhibitor, positive control, substrate control and blank reactions, for 1 hour at 25° C. Detection was by streptavidin-HRP with chemiluminescent substrate A and B read in a luminometer.

HCC1937+BRCA1 tumors = assay: Orthotopic tumor explant model, HCC1937+BRCA1; format: in vivo; conditions: HCC1937+BRCA1 tumors in NSG mice, daily oral 400 mg/kg; p=0.1577
Description: Experiments in mice were conducted under a protocol approved by the IACUC of City of Hope. Because HCC1937 and HCC1937+BRCA1 cells from slow-growing tumors, they were implanted using MATRIGEL™ (Becton-Dickinson Biosciences). To establish tumors 4×10^6 cells in 200 μL serum-free medium containing 50% MATRIGEL™ were injected into the mammary fat pads around the inguinal area of a pair of 8 week old female NSG mice. Once the initial tenors reached 13 mm in diameter, they were dissected out minced into 3 mm pieces and implanted into the inguinal area of the mammary fat pads of the experimental mice Tumors were measured over a 28-day period, and for each time point, the student t-test was used to determine the statistical significance between daily gavage with 400 mg/kg COH29 in 30% solutol and corresponding vehicle control. The p value less than 0.05 (2 sides) was considered to indicate statistical significance

[2] = test system: multiple human cancer cell lines; conditions: in most cases; cited from earlier work

T1 sequence (P09874 whole entry): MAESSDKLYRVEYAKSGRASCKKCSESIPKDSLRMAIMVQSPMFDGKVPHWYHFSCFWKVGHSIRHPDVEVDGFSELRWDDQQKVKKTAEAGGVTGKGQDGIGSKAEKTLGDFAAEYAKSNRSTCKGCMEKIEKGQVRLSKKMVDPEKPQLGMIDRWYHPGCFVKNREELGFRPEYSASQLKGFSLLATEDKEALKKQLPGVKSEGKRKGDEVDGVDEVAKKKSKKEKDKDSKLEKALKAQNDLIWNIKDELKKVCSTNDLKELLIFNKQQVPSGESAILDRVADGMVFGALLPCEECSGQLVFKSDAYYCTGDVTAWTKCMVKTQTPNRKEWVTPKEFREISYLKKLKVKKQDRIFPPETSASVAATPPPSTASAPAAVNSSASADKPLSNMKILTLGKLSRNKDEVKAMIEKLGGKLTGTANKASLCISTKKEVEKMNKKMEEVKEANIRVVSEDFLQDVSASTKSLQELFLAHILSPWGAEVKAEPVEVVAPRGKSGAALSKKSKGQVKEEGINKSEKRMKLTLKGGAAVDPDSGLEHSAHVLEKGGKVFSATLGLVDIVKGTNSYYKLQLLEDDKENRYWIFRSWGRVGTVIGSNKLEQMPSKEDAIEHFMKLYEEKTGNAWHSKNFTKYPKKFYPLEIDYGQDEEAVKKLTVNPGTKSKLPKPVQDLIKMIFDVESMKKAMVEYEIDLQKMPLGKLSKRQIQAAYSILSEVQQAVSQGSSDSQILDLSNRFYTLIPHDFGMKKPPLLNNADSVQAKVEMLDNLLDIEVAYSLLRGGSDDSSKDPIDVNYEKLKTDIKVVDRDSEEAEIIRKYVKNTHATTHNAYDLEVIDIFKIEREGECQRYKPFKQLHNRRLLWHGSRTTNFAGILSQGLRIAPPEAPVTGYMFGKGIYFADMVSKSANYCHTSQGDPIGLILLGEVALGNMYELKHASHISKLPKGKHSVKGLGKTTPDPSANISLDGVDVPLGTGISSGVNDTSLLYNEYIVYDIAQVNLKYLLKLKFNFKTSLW

In the case of `O=C(Nc1nc(-c2ccc(O)c(O)c2)c(-c2ccccc2)s1)c1ccc(O)c(O)c1` [COH29], the IC50 (SKBR3) is given as 13.28 ± 0.03 µM, the IC50 (MCF-7) is given as 17.6 ± 1.54 µM and the “potency relative to HU” value [1] is given as 20 fold. The IC50 (A2780) was 4.67 ± 1.64 µM, the “PARP1 activity, treated cells” value (PARP1; HCC1937+BRCA1, 24 h, untreated 2336878 cps) was 2041097 cps and the “PARP1 activity, treated cells” value (PARP1; HCC1937, 24 h, untreated 726177 cps) was 427851 cps. The “PARP1 activity, treated cells” value (PARP1; UWB1.289+BRCA1, 8 h, untreated printed 145769 cps) was 2129944 cps, the “PARP1 activity, treated cells” value (PARP1; UWB1.289, 8 h, untreated printed 113559 cps) was 774611 cps and the “tumor size compared to vehicle controls” value (HCC1937+BRCA1 tumors) was “not significantly smaller”. The IC50 [2] was < 10 µM.
